Measurements from US20060063774A1, “Phosphodiesterase inhibitor compounds and nitric oxide donors” (priority 2004, published 2006).

System: human corpus cavernosum tissue
Assay: In vitro comparative relaxation responses in phenylephrine-contracted human corpus cavernosum tissue strips (organ chamber, isometric tension)
Assay type: cell-based
Conditions: 10 μM and 30 μM, cumulative additions; tissue contracted with phenylephrine 7×10^−7 M; −100% = tone after papaverine 10^−4 M; comparator equimolar dipyridamole; FIG. 40
Description: FIG. 40 Graph of comparative in vitro relaxation effects of dipyridamole and Example 1 in phenylephrine induced contacted human corpus cavernosum tissue.
Human corpus cavernosum tissue biopsies were obtained at the time of penile prosthesis implantation from impotent men. The tissue was maintained in a chilled Krebs-bicarbonate solution prior to assay. The tissue was cut into strips of 0.3×0.3×1 cm and suspended in organ chambers for isometric tension measurement. Tissues were incrementally stretched until optimal isometrtic tension for contraction was obtained. Once this was achieved, the tissues were contracted with phenylephine (7×10^−7 M) and once a stable contraction was achieved, the tissues were exposed to either dipyridamole or Example 1 (10^−6 to 3×10^−5 M) by cumulative additions to the chamber. At the end of the experiment papaverine (10^−4 M) is added to obtain maximal relaxation. […] Data are expressed as the percent loss in tone from the phenylephrine-induced contraction (0%=phenylephrine contraction; −100%=tone after the administration of papaverine).

## CC(C)(CC(=O)OCCN(CCOC(=O)CC(C)(C)SN=O)c1nc(N2CCCCC2)c2nc(N(CCOC(=O)CC(C)(C)SN=O)CCOC(=O)CC(C)(C)SN=O)nc(N3CCCCC3)c2n1)SN=O [Example 1, 2,6-bis(diethyl(3-methyl-3(nitrosothiol)butyric acid ester)amino)-4,8-dipiperidinopyrimido-[5,4-d]-pyrimidine]
  relaxation of the phenylephrine-induced contraction (percent loss in tone), compared with dipyridamole: more efficacious in relaxing the phenylephrine-induced contaction than is an equimolar dose of the phosphodiesterase inhibitor dipyridamole
